Experimental data published in patent US20100286264A1, “COMPOSITION COMPRISING A NITROOXYDERIVATIVE OF ACETAMINOPHEN AND A ANTICONVULSANT DRUG FOR THE TREATMENT OF NEUROPATHIC PAIN” (Nicox S.A., priority 2008, published 2010).

Tested on: spinal cord neuronal responses from adult male Wistar rats with mononeuropathy
Assay: Recording of single motor units: nociceptive responses in rats with mononeuropathy (partial sciatic nerve ligation)
Type: in vivo, rat
Details: for Nociceptive responses to noxious mechanical stimulation: i.v., ± S.E.M.
Procedure: The application routes were intravenous (i.v.). The enhancement of the antinociception was studied by isobolographic analysis. Mononeuropathy was induced under anesthetic regime, seven days before the experiment, using the partial ligation of the sciatic nerve technique. The development of hyperalgesia was assessed by behavioral experiments, studying withdrawal reflex responses evoked by mechanical and thermal stimulation.

SMILES | Nociceptive responses to noxious mechanical stimulation (gabapentin 20 μmol/kg alone) | Nociceptive responses to noxious mechanical stimulation (gabapentin 40 μmol/kg alone) | Nociceptive responses to noxious mechanical stimulation (gabapentin 80 μmol/kg alone) | Nociceptive responses to noxious mechanical stimulation (gabapentin 160 μmol/kg alone) | Nociceptive responses to noxious mechanical stimulation (gabapentin 320 μmol/kg alone) | Nociceptive responses to noxious mechanical stimulation (compound 1 15 μmol/kg alone (gabapentin 0)) | Nociceptive responses to noxious mechanical stimulation (compound 1 30 μmol/kg alone (gabapentin 0)) | Nociceptive responses to noxious mechanical stimulation (compound 1 60 μmol/kg alone (gabapentin 0)) | Nociceptive responses to noxious mechanical stimulation (compound 1 120 μmol/kg alone (gabapentin 0)) | Nociceptive responses to noxious mechanical stimulation (compound 1 240 μmol/kg alone (gabapentin 0)) | Effect on nociceptive responses evoked by noxious mechanical and electrical stimulation (intravenous, mechanical and electrical stimulation) | ID50 for noxious mechanical stimulation (intravenous, rats with mononeuropathy, noxious mechanical stimulation) [µmol/kg]
NCC1(CC(=O)O)CCCCC1 [Gabapentin, reference compound] | 100 ± 5 percentage of vehicle values | 95 ± 1 percentage of vehicle values | 95 ± 2 percentage of vehicle values | 79 ± 3 percentage of vehicle values | 59 ± 6 percentage of vehicle values | – | – | – | – | – | – | –
CC(=O)Nc1ccc(OC(=O)CCCO[N+](=O)[O-])cc1 [Compound 1, 4-(nitrooxy)butanoic acid 4-(N-acetylamino)phenyl ester] | – | – | – | – | – | 98 ± 6 percentage of vehicle values | 95 ± 2 percentage of vehicle values | 91 ± 4.5 percentage of vehicle values | 86 ± 5 percentage of vehicle values | 75 ± 9 percentage of vehicle values | dose-dependently reduced the nociceptive responses | 542 ± 5
